Laboratory results taken from patent US11136296B2, “Substituted N-arylethyl-2-arylquinoline-4-carboxamides and use thereof” (Bayer Aktiengesellschaft, priority 2017, dated 2021).

Biological target: FP receptor (Homo sapiens (Human), UniProt P43088)
Test: In vitro test of inhibition of human FP receptor activity (PGF2α-induced calcium flux in FP-expressing CHEM1 cells)
Assay type: cell-based
Details: PGF2α-induced (2 nM) calcium flux in FP-expressing CHEM1 cells; some as mean values from multiple determinations
Description: Table 1 below lists the IC50 values from this assay for individual working examples of the invention (some as mean values from multiple independent individual determinations): […]

Chain of FP receptor (P43088 whole entry): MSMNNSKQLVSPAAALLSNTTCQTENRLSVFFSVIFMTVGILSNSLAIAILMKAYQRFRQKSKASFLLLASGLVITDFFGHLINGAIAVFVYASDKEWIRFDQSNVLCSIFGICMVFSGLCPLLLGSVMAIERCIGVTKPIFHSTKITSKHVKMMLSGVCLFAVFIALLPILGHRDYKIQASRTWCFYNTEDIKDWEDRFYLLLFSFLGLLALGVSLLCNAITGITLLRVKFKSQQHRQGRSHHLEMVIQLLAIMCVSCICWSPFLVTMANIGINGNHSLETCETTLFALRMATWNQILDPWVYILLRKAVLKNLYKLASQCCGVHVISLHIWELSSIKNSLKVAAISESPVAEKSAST

| IC50 [nM] | Compound |
| --- | --- |
| 6.2 | Cc1c(-c2ccccc2)nc2ccc(Br)cc2c1C(=O)NCC(CCC(=O)O)c1c(Cl)ccc(F)c1F (single isomer, unassigned; (+)) [Example 202, (+)-5-{[(6-Bromo-3-methyl-2-phenylquinolin-4-yl)carbonyl]amino}-4-(6-chloro-2,3-difluorophenyl)pentanoic Acid] |
| 22 | Cc1c(-c2ccccc2)nc2ccc(Br)cc2c1C(=O)NCC(CCC(=O)O)c1ccccc1C(F)(F)F (single isomer, unassigned; (+)) [Example 205, (+)-5-{[(6-Bromo-3-methyl-2-phenylquinolin-4-yl)carbonyl]amino}-4-[2-(trifluoromethyl)phenyl]pentanoic Acid] |
| 11 | Cc1ccc(F)cc1C(CCC(=O)O)CNC(=O)c1c(C)c(-c2ccccc2)nc2ccc(Br)cc12 (single isomer, unassigned; (+)) [Example 208, (+)-5-{[(6-Bromo-3-methyl-2-phenylquinolin-4-yl)carbonyl]amino}-4-(5-fluoro-2-methylphenyl)pentanoic Acid] |
| 6.1 | Cc1c(-c2ccccc2)nc2ccc(Br)cc2c1C(=O)NCC(CCC(=O)O)c1ccccc1OC(F)(F)F (single isomer, unassigned; (+)) [Example 210, (+)-5-{[(6-Bromo-3-methyl-2-phenylquinolin-4-yl)carbonyl]amino}-4-[2-(trifluoromethoxy)phenyl]pentanoic Acid] |
| 4.4 | O=C(O)CCC(CNC(=O)c1c(Cl)c(-c2ccccc2)nc2ccc(Br)cc12)c1ccccc1Cl (single isomer, unassigned; (+)) [Example 214, (+)-5-{[(6-Bromo-3-chloro-2-phenylquinolin-4-yl)carbonyl]amino}-4-(2-chlorophenyl)pentanoic Acid] |
| 19 | O=C(O)CCC(CNC(=O)c1c(Cl)c(-c2ccccc2)nc2ccc(Br)cc12)c1ccccc1C(F)(F)F (single isomer, unassigned; (+)) [Example 217, (+)-5-{[(6-Bromo-3-chloro-2-phenylquinolin-4-yl)carbonyl]amino}-4-[2-(trifluoromethyl)phenyl]pentanoic Acid] |
| 8 | C#Cc1ccc2nc(-c3ccccc3)c(C)c(C(=O)NCC(CCC(=O)O)c3ccccc3Cl)c2c1 (single isomer, unassigned; (+)) [Example 220, (+)-4-(2-Chlorophenyl)-5-{[(6-ethynyl-3-methyl-2-phenylquinolin-4-yl)carbonyl]amino}pentanoic Acid] |
| 12 | O=C(O)CCC(CNC(=O)c1c(Cl)c(-c2ccccc2)nc2ccc(Br)cc12)c1c(F)ccc(F)c1Cl (single isomer, unassigned; (+)) [Example 223, (+)-5-{[(6-Bromo-3-chloro-2-phenylquinolin-4-yl)carbonyl]amino}-4-(2-chloro-3,6-difluorophenyl)pentanoic Acid] |
| 100 | Cc1c(-c2ccccc2)nc2ccc(Br)cc2c1C(=O)NCC(CCC(=O)O)c1c(F)cccc1C(F)(F)F (single isomer, unassigned; (+)) [Example 226, (+)-5-{[(6-Bromo-3-methyl-2-phenylquinolin-4-yl)carbonyl]amino}-4-[2-fluoro-6-(trifluoromethyl)phenyl]pentanoic Acid] |
| 49 | Cc1c(-c2ccccc2)nc2ccc(Br)cc2c1C(=O)NCC(CCC(=O)O)c1c(F)c(F)cc(F)c1F (single isomer, unassigned; (+)) [Example 230, (+)-5-{[(6-Bromo-3-methyl-2-phenylquinolin-4-yl)carbonyl]amino}-4-(2,3,5,6-tetrafluorophenyl)pentanoic Acid] |
| 32 | Cc1c(-c2ccccc2)nc2ccc(Br)cc2c1C(=O)NCC(CCC(=O)O)c1c(Cl)ccc(Cl)c1Cl (single isomer, unassigned; (+)) [Example 235, (+)-5-{[(6-Bromo-3-methyl-2-phenylquinolin-4-yl)carbonyl]amino}-4-(2,3,6-trichlorophenyl)pentanoic Acid] |
| 16 | Cc1c(-c2ccccc2)nc2ccc(Br)cc2c1C(=O)NCC(C)(CCCC(=O)O)c1ccccc1Cl (single isomer, unassigned; (+)) [Example 242, (+)-6-{[(6-Bromo-3-methyl-2-phenylquinolin-4-yl)carbonyl]amino}-5-(2-chlorophenyl)-5-methylhexanoic Acid] |
| 63 | Cc1c(-c2ccccc2)nc2ccc(Br)cc2c1C(=O)NCC(C)(CCCC(=O)O)c1ccccc1 (single isomer, unassigned; (+)) [Example 245, (+)-6-{[(6-Bromo-3-methyl-2-phenylquinolin-4-yl)carbonyl]amino}-5-methyl-5-phenylhexanoic Acid] |
| 160 | Cc1c(-c2ccccc2)nc2ccc(Br)cc2c1C(=O)NCC(C(=O)O)c1ccccc1 (single isomer, unassigned; (-)) [Example 2, (−)-3-{[(6-Bromo-3-methyl-2-phenylquinolin-4-yl)carbonyl]amino}-2-phenylpropanoic Acid] |
| 130 | COc1ccccc1C(CNC(=O)c1c(C)c(-c2ccccc2)nc2ccc(Br)cc12)C(=O)O (single isomer, unassigned; (-)) [Example 8, (−)-3-{[(6-Bromo-3-methyl-2-phenylquinolin-4-yl)carbonyl]amino}-2-(2-methoxyphenyl)propanoic Acid] |
| 53 | Cc1c(-c2ccccc2)nc2ccc(Br)cc2c1C(=O)NCC(C)(C(=O)O)c1ccccc1 (single isomer, unassigned; (-)) [Example 14, (−)-3-{[(6-Bromo-3-methyl-2-phenylquinolin-4-yl)carbonyl]amino}-2-methyl-2-phenylpropanoic Acid] |
| 260 | CCC(CNC(=O)c1c(C)c(-c2ccccc2)nc2ccc(Br)cc12)(C(=O)O)c1ccccc1 (single isomer, unassigned; (-)) [Example 17, (−)-2-({[(6-Bromo-3-methyl-2-phenylquinolin-4-yl)carbonyl]amino}methyl)-2-phenylbutanoic Acid] |
| 170 | Cc1c(-c2ccccc2)nc2ccc(Br)cc2c1C(=O)NCC(O)(C(=O)O)c1ccccc1 (single isomer, unassigned; (-)) [Example 21, (−)-3-{[(6-Bromo-3-methyl-2-phenylquinolin-4-yl)carbonyl]amino}-2-hydroxy-2-phenylpropanoic Acid] |
| 68 | Cc1c(-c2ccccc2)nc2ccc(Br)cc2c1C(=O)NCC(C)(C(=O)O)c1ccccc1F (single isomer, unassigned; (-)) [Example 31, (−)-3-{[(6-Bromo-3-methyl-2-phenylquinolin-4-yl)carbonyl]amino}-2-(2-fluorophenyl)-2-methylpropanoic Acid] |
| 130 | Cc1c(-c2ccccc2)nc2ccc(Br)cc2c1C(=O)NCC(C)(C(=O)O)c1c(F)cccc1F (single isomer, unassigned; (-)) [Example 34, (−)-3-{[(6-Bromo-3-methyl-2-phenylquinolin-4-yl)carbonyl]amino}-2-(2,6-difluorophenyl)-2-methylpropanoic Acid] |
| 810 | Cc1c(-c2ccccc2)nc2ccc(Br)cc2c1C(=O)NCC(C)(C(=O)O)c1ccccc1Cl (single isomer, unassigned; (-)) [Example 36, (−)-3-{[(6-Bromo-3-methyl-2-phenylquinolin-4-yl)carbonyl]amino}-2-(2-chlorophenyl)-2-methylpropanoic Acid] |
| 140 | Cc1c(-c2ccccc2)nc2ccc(Br)cc2c1C(=O)NCC(F)(C(=O)O)c1ccccc1 (single isomer, unassigned; (-)) [Example 39, (−)-3-{[(6-Bromo-3-methyl-2-phenylquinolin-4-yl)carbonyl]amino}-2-fluoro-2-phenylpropanoic Acid] |
| 120 | Cc1c(-c2ccccc2)nc2ccc(Br)cc2c1C(=O)NCC(C)(C(=O)O)c1cccc(C(F)(F)F)c1 (single isomer, unassigned; (-)) [Example 42, (−)-3-{[(6-Bromo-3-methyl-2-phenylquinolin-4-yl)carbonyl]amino}-2-methyl-2-[3-(trifluoromethyl)phenyl]propanoic Acid] |
| 600 | COc1cccc(C(CNC(=O)c2c(C)c(-c3ccccc3)nc3ccc(Br)cc23)C(=O)O)c1 (single isomer, unassigned; (-)) [Example 45, (−)-3-{[(6-Bromo-3-methyl-2-phenylquinolin-4-yl)carbonyl]amino}-2-(3-methoxyphenyl)propanoic Acid] |
| 33 | Cc1c(-c2ccccc2)nc2ccc(Br)cc2c1C(=O)NCC(C(=O)O)c1cccc(Cl)c1 (single isomer, unassigned; (-)) [Example 48, (−)-3-{[(6-Bromo-3-methyl-2-phenylquinolin-4-yl)carbonyl]amino}-2-(3-chlorophenyl)propanoic Acid] |
| 42 | Cc1cccc(C(CNC(=O)c2c(C)c(-c3ccccc3)nc3ccc(Br)cc23)C(=O)O)c1 (single isomer, unassigned; (-)) [Example 51, (−)-3-{[(6-Bromo-3-methyl-2-phenylquinolin-4-yl)carbonyl]amino}-2-(3-methylphenyl)propanoic Acid] |
| 500 | COc1ccccc1C(O)(CNC(=O)c1c(C)c(-c2ccccc2)nc2ccc(Br)cc12)C(=O)O (single isomer, unassigned; (-)) [Example 54, (−)-3-{[(6-Bromo-3-methyl-2-phenylquinolin-4-yl)carbonyl]amino}-2-hydroxy-2-(2-methoxyphenyl)propanoic Acid] |
| 210 | COc1cccc(F)c1C(CNC(=O)c1c(C)c(-c2ccccc2)nc2ccc(Br)cc12)C(=O)O (single isomer, unassigned; (-)) [Example 57, (−)-3-{[(6-Bromo-3-methyl-2-phenylquinolin-4-yl)carbonyl]amino}-2-(2-fluoro-6-methoxyphenyl)propanoic Acid] |
| 390 | COc1ccccc1C(C)(CNC(=O)c1c(C)c(-c2ccccc2)nc2ccc(Br)cc12)C(=O)O (single isomer, unassigned; (-)) [Example 59, (−)-3-{[(6-Bromo-3-methyl-2-phenylquinolin-4-yl)carbonyl]amino}-2-(2-methoxyphenyl)-2-methylpropanoic Acid] |
